According to ChEMBL document CHEMBL1201862, “PubChem BioAssay data set” (2004):
Calls of active or inactive are those of the source.

Assays:
BJ [1] = experiment: cytotoxicity toward BJ-TERT fibroblasts, dose response, cell-based, RAS-independent, luminescence (AID 1933); type: functional; details: Homo sapiens
BJ [2] = experiment: cytotoxicity toward Ras-transformed BJeLR fibroblasts, dose response, cell-based, alamar blue fluorescence, cherrypicked samples (AID 2631); type: functional; details: Homo sapiens;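 note: confirmatory dose-response assay in RAS-dependent BJ fibroblasts engineered with TERT, LT and ST, with cytotoxicity read by fluorescence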
BJ [3] = experiment: cytotoxicity toward BJ-TERT-LT-ST fibroblasts, dose response, cell-based, RAS-independent, luminescence (AID 1935); type: functional; details: Homo sapiens;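 note: BJ fibroblasts immortalized with TERT plus LT and ST oncogenes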
[4] = cytotoxicity toward DRD oncogenic fibroblasts, dose response, cell-based, non-viral oncogenic, luminescence (AID 1934); type: functional; details: Homo sapiens
BJ [5] = experiment: cells; type: functional, cell-based; details: Homo sapiens
[6] = target: T1, Nucleotide-binding oligomerization domain-containing protein 1 (Homo sapiens, UniProt Q9Y239); experiment: NOD1 signaling inhibitors, SAR follow-up, revised (AID 2333); type: functional
T1 sequence (Q9Y239 whole entry): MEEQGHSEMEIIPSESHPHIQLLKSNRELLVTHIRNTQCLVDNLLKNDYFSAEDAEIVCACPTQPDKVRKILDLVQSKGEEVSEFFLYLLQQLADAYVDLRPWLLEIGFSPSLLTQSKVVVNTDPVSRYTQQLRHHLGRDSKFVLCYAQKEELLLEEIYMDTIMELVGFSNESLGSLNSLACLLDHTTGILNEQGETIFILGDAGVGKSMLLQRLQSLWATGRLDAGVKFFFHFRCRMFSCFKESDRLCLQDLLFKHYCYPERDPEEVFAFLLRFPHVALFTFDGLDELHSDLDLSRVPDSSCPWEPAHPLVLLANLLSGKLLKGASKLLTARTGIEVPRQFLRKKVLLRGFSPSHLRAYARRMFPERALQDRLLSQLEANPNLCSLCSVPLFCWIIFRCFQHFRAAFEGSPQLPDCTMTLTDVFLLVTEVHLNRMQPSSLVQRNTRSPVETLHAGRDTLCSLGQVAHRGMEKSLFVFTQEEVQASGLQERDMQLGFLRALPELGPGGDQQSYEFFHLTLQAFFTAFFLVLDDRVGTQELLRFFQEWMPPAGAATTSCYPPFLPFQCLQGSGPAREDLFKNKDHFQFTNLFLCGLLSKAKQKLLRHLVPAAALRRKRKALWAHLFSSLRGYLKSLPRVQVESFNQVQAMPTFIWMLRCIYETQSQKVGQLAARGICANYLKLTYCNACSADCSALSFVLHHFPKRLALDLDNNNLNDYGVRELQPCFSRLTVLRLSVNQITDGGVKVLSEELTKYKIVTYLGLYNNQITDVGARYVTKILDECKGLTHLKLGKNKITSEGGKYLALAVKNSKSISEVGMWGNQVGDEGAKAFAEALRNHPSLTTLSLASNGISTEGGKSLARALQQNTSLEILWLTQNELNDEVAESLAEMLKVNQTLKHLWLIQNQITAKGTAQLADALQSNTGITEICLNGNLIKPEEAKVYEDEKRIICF

HEK293 [7] = experiment: cells; details: Homo sapiens
Tumor necrosis factor = Tumor necrosis factor (Homo sapiens, UniProt P01375); experiment: TNFa-triggered NF-kB activation inhibitors, SAR follow-up, cell-based, revised (AID 2337); type: functional
[8] = target: T2, Carboxy-terminal domain RNA polymerase II polypeptide A small phosphatase 1 (Homo sapiens, UniProt Q9GZU7); experiment: inhibitors of CTDSP1, concentration-response testing, biochemical assay, absorbance-based, actives from ultra-high-throughput screening (AID 540297); type: functional
T2 sequence (Q9GZU7 whole entry): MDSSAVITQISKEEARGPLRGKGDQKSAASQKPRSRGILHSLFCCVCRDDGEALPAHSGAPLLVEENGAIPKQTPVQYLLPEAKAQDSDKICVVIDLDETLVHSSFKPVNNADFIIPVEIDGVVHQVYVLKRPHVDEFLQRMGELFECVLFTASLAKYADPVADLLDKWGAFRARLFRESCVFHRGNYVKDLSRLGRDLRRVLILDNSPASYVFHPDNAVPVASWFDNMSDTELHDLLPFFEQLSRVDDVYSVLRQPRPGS

[9] = target: T3, Nuclear receptor subfamily 0 group B member 1 (Homo sapiens, UniProt P51843); experiment: Luminescence-based cell-based high throughput dose response assay for inhibitors of the orphan nuclear receptor subfamily 0, group B, member 1 (DAX1; NR0B1). [Related pubchem assays (depositor defined):AID504766, AID504790]; type: functional
T3 sequence (P51843 whole entry): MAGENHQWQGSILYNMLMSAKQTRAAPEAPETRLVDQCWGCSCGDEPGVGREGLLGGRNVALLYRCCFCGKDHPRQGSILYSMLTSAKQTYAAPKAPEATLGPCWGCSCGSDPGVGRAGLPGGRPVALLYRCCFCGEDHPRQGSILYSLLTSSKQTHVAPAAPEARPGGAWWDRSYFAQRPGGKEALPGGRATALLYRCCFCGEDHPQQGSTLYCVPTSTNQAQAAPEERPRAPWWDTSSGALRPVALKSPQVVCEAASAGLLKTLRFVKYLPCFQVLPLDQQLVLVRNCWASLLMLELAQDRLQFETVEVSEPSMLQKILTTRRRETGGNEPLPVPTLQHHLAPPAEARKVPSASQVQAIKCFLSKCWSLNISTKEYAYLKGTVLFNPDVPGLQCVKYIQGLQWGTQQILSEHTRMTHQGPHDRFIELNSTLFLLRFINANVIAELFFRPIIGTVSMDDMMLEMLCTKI

H9c2 = experiment: cells; type: functional, cell-based; details: Rattus norvegicus, H9c2, Myocardium;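 note: confirmatory concentration-response retest of ultra-high-throughput screening hits for modulation of myocardial damage; cell death induced by hydrogen peroxide oxidative stress; compound pretreatment for 60 min then peroxide exposure for 2 h; potency is for protecting the cells against peroxide damage rather than for killing them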
HEK293 [10] = experiment: cells; type: functional, cell-based; details: Homo sapiens
[11] = target: Voltage-gated inwardly rectifying potassium channel KCNH2 (Homo sapiens, UniProt Q12809); details: Potency;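 note: confirmatory quantitative high-throughput screen measuring inhibition of hERG channel activity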
[12] = Luminescence Cell-Based Dose Retest to Confirm Inhibitors of Cancer Stem Cells. [Related pubchem assays (depositor defined):AID2717, AID2721]; type: functional; details: Homo sapiens
Vero = experiment: cells; type: functional; details: Chlorocebus sabaeus
[13] = target: T4, Polyadenylate-binding protein 1 (Homo sapiens, UniProt P11940); experiment: PABP1 MLLE–PAM2 interaction inhibitors, dose response, miRNA deadenylation inhibitor project, biochemical, fluorescence polarization, Cy5-PAM2 peptide, secondary (AID 602260); type: functional; details: read-out: IC50_Mean
[14] = target: Ras and Rab interactor 1/Tyrosine-protein kinase ABL1 (Homo sapiens, UniProt P00519+Q13671); type: functional;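 note: biochemical TR-FRET dose-response test measuring inhibition of binding between Rin1 and Abl proteins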
[15] = target: T4, Polyadenylate-binding protein 1; experiment: PABP1 MLLE–PAM2 binding inhibitor potency, dose response, biochemical, fluorescence polarization, FITC-PAM2 peptide (AID 602259); type: functional; details: read-out: IC50_Mean
Aurora kinase A = target: T5, Aurora kinase A (Homo sapiens, UniProt O14965); type: functional;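 note: value from the Navigating the Kinome kinase panel profiling, panel entry STK6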
T5 sequence (O14965 whole entry): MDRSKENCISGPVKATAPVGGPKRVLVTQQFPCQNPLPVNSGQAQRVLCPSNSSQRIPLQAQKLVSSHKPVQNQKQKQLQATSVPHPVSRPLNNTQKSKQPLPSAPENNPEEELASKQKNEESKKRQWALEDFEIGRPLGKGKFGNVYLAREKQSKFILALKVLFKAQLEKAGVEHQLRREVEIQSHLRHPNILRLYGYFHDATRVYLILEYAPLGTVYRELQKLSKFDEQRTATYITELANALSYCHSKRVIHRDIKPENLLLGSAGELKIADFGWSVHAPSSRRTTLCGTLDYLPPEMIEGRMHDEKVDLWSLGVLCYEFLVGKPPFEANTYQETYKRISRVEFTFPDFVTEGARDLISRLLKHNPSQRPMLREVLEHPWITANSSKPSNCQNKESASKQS

Aurora kinase B = Aurora kinase B (Homo sapiens, UniProt Q96GD4); type: functional
[16] = target: Vascular endothelial growth factor receptor 2 (Homo sapiens, UniProt P35968); type: functional
HeLa = experiment: HeLa cell cytotoxicity, dose response, cytotoxicity control, 24 h, cherry-picked samples (AID 504726); type: functional, cell-based; details: Homo sapiens;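 note: potency for cytotoxicity as loss of luminescence signal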
Albumin = Albumin (Bos taurus, UniProt P02769); experiment: Counterscreen for inhibitors of T-cell receptor (TCR)-CD3 interaction: Fluorescence-based biochemical high throughput dose response assay to identify inhibitors of T-cell receptor (TCR)-CD3 interaction using a TAMRA-labeled BSA probe.; type: functional
[17] = target: T6, Small ubiquitin-related modifier 1 (Homo sapiens, UniProt P63165); experiment: inhibitors of SUMO1 partner interactions, dose response, biochemical, FRET (AID 624383); type: functional; details: read-out: IC50_Mean
[18] = target: T6, Small ubiquitin-related modifier 1; experiment: inhibitors of SUMO1 peptide binding, dose response, biochemical, fluorescence polarization, uHTS hits (AID 624382); type: functional; details: read-out: IC50_Mean
[19] = target: T7, Rac GTPase-activating protein 1 (Homo sapiens, UniProt Q9H0H5); experiment: MgcRacGAP GTPase-activating activity inhibitors, confirmation, biochemical, ADP Hunter fluorescence, primary and confirmatory (AID 624330); type: functional
T7 sequence (Q9H0H5 whole entry): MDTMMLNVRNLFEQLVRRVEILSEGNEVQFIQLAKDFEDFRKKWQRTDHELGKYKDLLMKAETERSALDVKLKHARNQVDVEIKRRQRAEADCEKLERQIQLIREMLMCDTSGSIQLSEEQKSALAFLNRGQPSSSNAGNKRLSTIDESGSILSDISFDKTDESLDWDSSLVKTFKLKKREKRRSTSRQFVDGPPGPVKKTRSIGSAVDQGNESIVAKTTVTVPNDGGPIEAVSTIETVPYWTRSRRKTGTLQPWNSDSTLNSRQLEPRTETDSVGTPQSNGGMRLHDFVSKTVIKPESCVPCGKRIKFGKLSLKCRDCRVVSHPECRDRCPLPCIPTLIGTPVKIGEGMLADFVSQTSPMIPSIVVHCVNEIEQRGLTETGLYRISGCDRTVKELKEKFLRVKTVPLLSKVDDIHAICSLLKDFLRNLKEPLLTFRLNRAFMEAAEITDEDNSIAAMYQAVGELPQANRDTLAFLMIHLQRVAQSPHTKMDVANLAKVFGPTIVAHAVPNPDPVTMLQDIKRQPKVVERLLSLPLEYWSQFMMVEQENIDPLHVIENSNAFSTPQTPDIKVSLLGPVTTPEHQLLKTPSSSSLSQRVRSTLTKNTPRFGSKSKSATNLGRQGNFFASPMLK

Chain of Ras and Rab interactor 1/Tyrosine-protein kinase ABL1 (P00519 whole entry): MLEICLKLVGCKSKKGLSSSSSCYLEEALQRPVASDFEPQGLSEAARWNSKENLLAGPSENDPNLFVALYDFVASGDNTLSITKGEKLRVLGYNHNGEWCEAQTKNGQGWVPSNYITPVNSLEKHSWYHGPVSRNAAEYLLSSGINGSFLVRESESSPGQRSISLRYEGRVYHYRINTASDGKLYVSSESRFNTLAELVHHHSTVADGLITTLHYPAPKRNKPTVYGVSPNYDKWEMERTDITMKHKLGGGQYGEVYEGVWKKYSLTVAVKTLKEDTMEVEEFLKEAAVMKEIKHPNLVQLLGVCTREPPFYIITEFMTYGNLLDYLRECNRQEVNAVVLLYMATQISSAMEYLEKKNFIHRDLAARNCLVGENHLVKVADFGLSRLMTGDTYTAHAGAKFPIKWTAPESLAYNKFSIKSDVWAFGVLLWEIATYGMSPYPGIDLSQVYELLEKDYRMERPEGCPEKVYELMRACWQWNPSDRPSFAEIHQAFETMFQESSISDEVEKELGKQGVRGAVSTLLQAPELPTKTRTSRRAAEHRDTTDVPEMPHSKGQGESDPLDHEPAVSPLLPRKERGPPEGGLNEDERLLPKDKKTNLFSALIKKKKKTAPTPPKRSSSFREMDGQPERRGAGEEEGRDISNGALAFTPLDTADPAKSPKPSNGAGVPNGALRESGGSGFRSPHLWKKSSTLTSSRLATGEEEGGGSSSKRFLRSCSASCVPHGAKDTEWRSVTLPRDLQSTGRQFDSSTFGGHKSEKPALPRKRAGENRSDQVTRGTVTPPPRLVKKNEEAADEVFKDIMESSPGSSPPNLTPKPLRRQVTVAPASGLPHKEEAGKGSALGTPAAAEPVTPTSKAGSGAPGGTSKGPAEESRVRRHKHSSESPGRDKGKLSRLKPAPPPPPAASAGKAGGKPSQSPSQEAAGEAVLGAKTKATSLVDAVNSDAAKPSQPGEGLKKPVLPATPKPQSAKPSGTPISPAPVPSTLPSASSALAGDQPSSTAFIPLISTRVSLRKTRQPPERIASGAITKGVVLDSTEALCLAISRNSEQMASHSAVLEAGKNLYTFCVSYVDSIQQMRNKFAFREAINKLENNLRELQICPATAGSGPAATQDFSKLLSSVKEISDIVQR
Chain of Ras and Rab interactor 1/Tyrosine-protein kinase ABL1 (Q13671 whole entry): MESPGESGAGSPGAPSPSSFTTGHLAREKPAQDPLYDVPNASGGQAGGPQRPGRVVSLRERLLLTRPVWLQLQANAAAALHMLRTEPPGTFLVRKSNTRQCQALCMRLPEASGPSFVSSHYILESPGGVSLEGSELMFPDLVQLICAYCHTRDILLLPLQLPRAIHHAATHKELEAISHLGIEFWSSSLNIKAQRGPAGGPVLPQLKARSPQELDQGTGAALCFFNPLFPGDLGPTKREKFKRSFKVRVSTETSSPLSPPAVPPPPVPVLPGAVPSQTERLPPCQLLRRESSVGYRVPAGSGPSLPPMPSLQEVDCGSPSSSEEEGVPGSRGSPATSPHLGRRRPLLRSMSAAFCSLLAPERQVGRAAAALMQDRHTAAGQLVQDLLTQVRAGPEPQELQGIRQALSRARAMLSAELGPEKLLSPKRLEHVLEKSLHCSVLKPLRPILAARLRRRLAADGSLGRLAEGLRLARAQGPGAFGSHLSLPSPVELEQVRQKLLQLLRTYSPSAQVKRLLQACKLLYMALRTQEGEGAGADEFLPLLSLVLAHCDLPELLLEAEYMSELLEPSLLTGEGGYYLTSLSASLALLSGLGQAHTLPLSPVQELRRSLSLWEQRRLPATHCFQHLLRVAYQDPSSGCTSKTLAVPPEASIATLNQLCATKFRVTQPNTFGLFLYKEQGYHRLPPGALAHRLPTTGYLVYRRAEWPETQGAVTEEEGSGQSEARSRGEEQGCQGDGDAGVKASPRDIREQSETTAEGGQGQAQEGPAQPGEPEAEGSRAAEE
T6 sequence (P63165 whole entry): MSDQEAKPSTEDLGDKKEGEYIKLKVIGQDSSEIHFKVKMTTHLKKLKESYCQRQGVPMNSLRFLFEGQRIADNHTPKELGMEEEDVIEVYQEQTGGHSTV
T4 sequence (P11940 whole entry): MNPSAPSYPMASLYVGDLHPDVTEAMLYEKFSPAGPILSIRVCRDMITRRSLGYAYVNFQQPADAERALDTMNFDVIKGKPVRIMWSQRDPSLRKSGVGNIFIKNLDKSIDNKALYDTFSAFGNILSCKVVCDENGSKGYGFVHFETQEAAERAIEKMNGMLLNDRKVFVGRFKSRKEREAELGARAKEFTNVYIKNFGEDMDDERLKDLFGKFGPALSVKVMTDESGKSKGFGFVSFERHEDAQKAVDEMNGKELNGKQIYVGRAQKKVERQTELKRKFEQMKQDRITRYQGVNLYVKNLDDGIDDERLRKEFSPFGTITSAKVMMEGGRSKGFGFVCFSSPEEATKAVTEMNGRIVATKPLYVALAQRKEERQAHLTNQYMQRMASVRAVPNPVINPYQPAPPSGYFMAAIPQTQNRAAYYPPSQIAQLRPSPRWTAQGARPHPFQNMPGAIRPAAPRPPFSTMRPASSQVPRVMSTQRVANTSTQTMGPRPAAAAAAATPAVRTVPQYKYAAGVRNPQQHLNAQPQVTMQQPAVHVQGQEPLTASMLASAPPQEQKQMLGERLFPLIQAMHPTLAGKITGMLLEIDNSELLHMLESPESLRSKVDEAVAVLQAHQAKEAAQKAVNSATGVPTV
Chain of Tumor necrosis factor (P01375 whole entry, the tested form may be a part): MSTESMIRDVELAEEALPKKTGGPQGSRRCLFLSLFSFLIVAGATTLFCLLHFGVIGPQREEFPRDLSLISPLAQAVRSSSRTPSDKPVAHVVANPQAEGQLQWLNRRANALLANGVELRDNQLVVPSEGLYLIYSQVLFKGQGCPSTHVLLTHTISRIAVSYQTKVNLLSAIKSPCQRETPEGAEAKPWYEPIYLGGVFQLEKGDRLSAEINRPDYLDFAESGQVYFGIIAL
Chain of Voltage-gated inwardly rectifying potassium channel KCNH2 (Q12809 whole entry): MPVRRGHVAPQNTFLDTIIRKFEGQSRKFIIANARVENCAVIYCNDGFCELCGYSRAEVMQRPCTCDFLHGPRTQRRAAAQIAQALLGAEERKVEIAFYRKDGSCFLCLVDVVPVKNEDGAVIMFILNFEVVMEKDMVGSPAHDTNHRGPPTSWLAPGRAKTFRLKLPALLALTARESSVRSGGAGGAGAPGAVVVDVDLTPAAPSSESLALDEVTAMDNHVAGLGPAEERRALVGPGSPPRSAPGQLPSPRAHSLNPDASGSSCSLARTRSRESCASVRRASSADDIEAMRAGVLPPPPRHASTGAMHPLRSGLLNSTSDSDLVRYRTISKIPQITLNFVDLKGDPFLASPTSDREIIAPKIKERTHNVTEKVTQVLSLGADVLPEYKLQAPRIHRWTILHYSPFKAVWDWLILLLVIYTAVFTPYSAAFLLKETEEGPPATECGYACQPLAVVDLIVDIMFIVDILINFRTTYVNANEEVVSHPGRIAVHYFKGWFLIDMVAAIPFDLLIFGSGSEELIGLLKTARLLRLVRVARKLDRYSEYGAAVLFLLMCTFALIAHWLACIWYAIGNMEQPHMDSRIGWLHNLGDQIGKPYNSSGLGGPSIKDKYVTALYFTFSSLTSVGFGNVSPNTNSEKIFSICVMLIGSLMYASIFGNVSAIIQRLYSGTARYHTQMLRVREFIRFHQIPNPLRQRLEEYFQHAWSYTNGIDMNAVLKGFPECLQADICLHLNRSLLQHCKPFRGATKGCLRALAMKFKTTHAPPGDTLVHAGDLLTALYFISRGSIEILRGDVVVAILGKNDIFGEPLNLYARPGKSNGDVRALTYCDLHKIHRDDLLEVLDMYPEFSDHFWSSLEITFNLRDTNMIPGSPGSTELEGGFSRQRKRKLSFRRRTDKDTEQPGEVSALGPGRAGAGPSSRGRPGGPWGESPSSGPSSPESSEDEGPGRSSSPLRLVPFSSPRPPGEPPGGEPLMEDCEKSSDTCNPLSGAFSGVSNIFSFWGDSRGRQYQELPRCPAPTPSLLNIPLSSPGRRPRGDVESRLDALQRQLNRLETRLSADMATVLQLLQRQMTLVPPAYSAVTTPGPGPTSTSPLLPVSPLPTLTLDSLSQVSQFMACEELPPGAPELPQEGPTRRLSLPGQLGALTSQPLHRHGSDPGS
Chain of Albumin (P02769 whole entry): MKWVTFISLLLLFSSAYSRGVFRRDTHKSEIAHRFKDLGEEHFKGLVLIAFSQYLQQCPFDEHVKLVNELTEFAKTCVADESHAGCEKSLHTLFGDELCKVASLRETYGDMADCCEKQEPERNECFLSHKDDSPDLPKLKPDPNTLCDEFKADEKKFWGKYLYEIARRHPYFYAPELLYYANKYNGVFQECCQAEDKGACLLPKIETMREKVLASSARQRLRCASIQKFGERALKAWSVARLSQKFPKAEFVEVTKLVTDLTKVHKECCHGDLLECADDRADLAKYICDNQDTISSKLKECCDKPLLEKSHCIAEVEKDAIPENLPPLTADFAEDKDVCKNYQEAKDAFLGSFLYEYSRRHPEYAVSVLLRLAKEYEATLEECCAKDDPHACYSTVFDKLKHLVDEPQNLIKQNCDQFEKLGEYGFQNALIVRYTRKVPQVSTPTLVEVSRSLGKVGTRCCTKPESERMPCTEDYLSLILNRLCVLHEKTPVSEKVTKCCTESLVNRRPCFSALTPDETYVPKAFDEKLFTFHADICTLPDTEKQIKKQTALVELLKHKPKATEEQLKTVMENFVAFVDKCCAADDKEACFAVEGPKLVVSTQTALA
Chain of Aurora kinase B (Q96GD4 whole entry): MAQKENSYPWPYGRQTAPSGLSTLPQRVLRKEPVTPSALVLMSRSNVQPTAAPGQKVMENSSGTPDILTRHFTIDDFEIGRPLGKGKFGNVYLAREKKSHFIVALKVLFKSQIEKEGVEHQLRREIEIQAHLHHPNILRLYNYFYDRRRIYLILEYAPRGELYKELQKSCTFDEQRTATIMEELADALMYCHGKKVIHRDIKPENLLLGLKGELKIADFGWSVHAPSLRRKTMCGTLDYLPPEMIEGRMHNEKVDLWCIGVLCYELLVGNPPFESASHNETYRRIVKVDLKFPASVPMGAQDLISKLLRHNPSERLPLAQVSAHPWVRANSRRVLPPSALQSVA

Cc1c(C(=O)OCC(=O)N2CC(=O)Nc3ccccc32)oc2ccc(Br)cc12
EC50 (BJ [1]): 10.1 µM (active) | EC50 (BJ [2]): > 133 µM (inactive) | EC50 (BJ [3]): > 150 µM (inconclusive) | EC50 [4]: 15.6 µM (active) | EC50 (BJ [5]): 35.9 µM (active)

CN1C/C(=C/c2ccncc2)C(=O)/C(=C/c2ccncc2)C1
EC50 (BJ [1]): 3.82 µM (active) | EC50 (BJ [2]): 0.455 µM (active) | EC50 (BJ [3]): 5.85 µM (inconclusive) | EC50 [4]: 7.52 µM (active) | EC50 (BJ [5]): 3.65 µM (inconclusive)

CCOc1ccc(NC(=O)c2ccc(CCN3CCc4ccccc4C3)cc2)cc1
IC50 [6]: > 20 µM (inactive) | IC50 (HEK293 [7]): > 20 µM (inactive) | IC50 (Tumor necrosis factor): > 20 µM (inactive)

N#Cc1c(SCC(=O)Nc2cccc(F)c2)sc2c(O)cc(=O)[nH]c12
IC50 [8]: 7.26 µM (active)

Cc1[nH]c2ccccc2c1/C=N/NC(=O)c1cccs1
IC50 [9]: > 67.6 µM (inactive) | IC50 (H9c2): > 79 µM (inactive) | IC50 (HEK293 [10]): > 67.6 µM (inactive)

O=C(OCc1cc(=O)n2c(n1)sc1ccccc12)c1ccc(O)cc1
IC50 [8]: 5.75 µM (active)

CCCCOC(=O)c1ccccc1C(=O)OCc1ccccc1
AC50 [11]: 25.1 µM (inconclusive)

COc1ccc(C(=O)N[C@H](C(=O)NCCCSc2ccccc2)C(C)C)cc1
IC50 [9]: > 67.5 µM (inactive) | IC50 (HEK293 [10]): > 67.5 µM (inactive)

O=C(Nc1ccc(Cl)cc1)c1cc2c(cc1O)[nH]c1ccccc12
AC50 [12]: 0.198 µM (active) | CC50 (Vero): 10.9 µM (active)

CCOC(=O)CCCCC(=O)c1[nH]c(O)nc1CSc1nc(O)c(C#N)c(-c2ccccc2)n1
IC50 [13]: > 66 µM (inactive) | IC50 [14]: 1.45 µM (active) | IC50 [15]: > 66 µM (inactive)

CN(C)c1ccc(NC(=O)c2ccc(CN3CCc4ccccc4C3)cc2)cc1
IC50 [6]: 1.61 µM (active) | IC50 (HEK293 [7]): > 20 µM (inactive) | IC50 (Tumor necrosis factor): 1.83 µM (active)

O=C(NNc1nc2c(F)cccc2s1)c1ccccc1
IC50 [9]: > 67.5 µM (inactive) | IC50 (HEK293 [10]): > 67.5 µM (inactive)

O=C1Nc2ccccc2Nc2cc(-c3ccccc3O)ccc21
Ki (Aurora kinase A): > 2 µM (inactive) | Ki (Aurora kinase B): > 2.51 µM (inactive) | Ki [16]: 0.0794 µM (active)

CCOc1ccc(Nc2ccc(N)c(S(=O)(=O)O)c2)cc1
AC50 (HeLa): 299 µM (active) | IC50 [8]: 3.21 µM (active) | IC50 (Albumin): > 94.1 µM (inactive) | IC50 [17]: 11.7 µM (active) | IC50 [18]: > 66.6 µM (inactive) | IC50 [19]: 68.9 µM (active)

CCOC(=O)CCCCC(=O)c1[nH]c(O)nc1Cn1cnc2ccccc21
IC50 [14]: 1.86 µM (active)
